Test results reported in US20130281313A1, “PROGNOSTIC AND/OR PREDICTIVE BIOMARKERS AND BIOLOGICAL APPLICATIONS THEREOF” (INSTITUT GUSTAVE ROUSSY, priority 2010, published 2013).

Test system: A549 cells
Test: Transcriptome studies (mRNA microarrays)
Assay type: cell-based, human
Description: NSCLC A549 cells were treated with 100 μM CDDP, 75 μM C2-CER or 100 μM CdCl2 for 12 h, or with 50 μM CDDP, C2-CER or CdCl2 for 24 h. Thereafter, cells were collected and lysed for RNA extraction of following established procedures {de La Motte Rouge, 2007}. mRNA expression changes were quantified on G4112A 44 k Whole Human Genome Oligo Microarrays (Agilent Technologies, Santa Clara, USA), as previously reported {Castedo, 2006}. mRNA microarrays underwent standardized post-hybridization processing, image acquisition and analysis (see below) {Castedo, 2006}.
Data from microarray experiments were analyzed with the Rosetta Resolver® System (Rosetta Biosoftware, Seattle, USA). The threshold for statistical significance of probe signals (Intensity) was set at p=10^−5. […] For each mRNA, fold change (FC) was then defined as Intensitysample/Intensitycontrol when Intensitysample>Intensitycontrol, or as—(Intensitycontrol/Intensitysample) when Intensitysample<Intensitycontrol. Ratios were calculated as Intensitysample/Intensitycontrol.

[1] = 12 h, 100 μM CDDP, 75 μM C2-CER or 100 μM CdCl2, vs untreated cells
[2] = 24 h, 50 μM CDDP, C2-CER or CdCl2, vs untreated cells

N.N.[Cl][Pt][Cl] [CDDP, cis-diammineplatinum(II) dichloride]
Fold change, ADAR (NM_001111) transcript [1]: n.s.
Fold change, ALDH7AT (NM_001182) transcript [1]: n.s.
Fold change, CD151 (NM_004357) transcript [1]: n.s.
Fold change, CLIC1 (NM_001288) transcript [1]: n.s.
Fold change, COMMO9 (NM_014186) transcript [1]: n.s.
Fold change, COX5B (NM_001802) transcript [1]: n.s.
Fold change, COX7C (NM_001867) transcript [1]: n.s.
Fold change, DHRSX (NM_145177) transcript [1]: −1.94
Fold change, EBP (NM_006579) transcript [1]: n.s.
Fold change, EEF2 (NM_001901) transcript [1]: 1.36
Fold change, FDXK (NM_003681) transcript [1]: −1.77
Fold change, FN3KRP (NM_024619) transcript [1]: 1.33
Fold change, HDLBP (NM_005336) transcript [1]: n.s.
Fold change, HGD (NM_000187) transcript [1]: −1.68
Fold change, IL6R (NM_000565) transcript [1]: n.s.
Fold change, KHSRP (NM_003685) transcript [1]: n.s.
Fold change, LOC389727 (NM_372092) transcript [1]: n.s.
Fold change, MAT2A (NM_005911) transcript [1]: −1.97
Fold change, MOL1 (NM_021960) transcript [1]: 2.48
Fold change, MPP6 (NM_016447) transcript [1]: n.s.
Fold change, OSTCL (NM_145303) transcript [1]: n.s.
Fold change, P5MC5 (NM_002805) transcript [1]: n.s.
Fold change, PLK1S1 (NM_018474) transcript [1]: n.s.
Fold change, PPM1J (NM_005167) transcript [1]: 1.63
Fold change, RNF26 (NM_032015) transcript [1]: n.s.
Fold change, RRAD (NM_004185) transcript [1]: 6.59
Fold change, SEMA3G (NM_000379) transcript [1]: −1.58
Fold change, SLC22A16AS (NM_007105) transcript [1]: −1.36
Fold change, SOCS6 (NM_004232) transcript [1]: −1.28
Fold change, TMED1 (NM_006858) transcript [1]: 1.35
Fold change, TRIP4 (NM_016213) transcript [1]: −1.64
Fold change, UBE2L3 (NM_003347) transcript [1]: −1.76
Fold change, UBE21 (NM_014176) transcript [1]: n.s.
Fold change, W282 (NM_018029) transcript [1]: n.s.
Fold change, ADAR (NM_001111) transcript [2]: n.s.
Fold change, ALDH7AT (NM_001182) transcript [2]: 1.62
Fold change, CD151 (NM_004357) transcript [2]: −2.13
Fold change, CLIC1 (NM_001288) transcript [2]: n.s.
Fold change, COMMO9 (NM_014186) transcript [2]: n.s.
Fold change, COX5B (NM_001802) transcript [2]: n.s.
Fold change, COX7C (NM_001867) transcript [2]: n.s.
Fold change, DHRSX (NM_145177) transcript [2]: −5.40
Fold change, EBP (NM_006579) transcript [2]: n.s.
Fold change, EEF2 (NM_001901) transcript [2]: −1.31
Fold change, FDXK (NM_003681) transcript [2]: −1.44
Fold change, FN3KRP (NM_024619) transcript [2]: 1.25
Fold change, HDLBP (NM_005336) transcript [2]: n.s.
Fold change, HGD (NM_000187) transcript [2]: −1.50
Fold change, IL6R (NM_000565) transcript [2]: n.s.
Fold change, KHSRP (NM_003685) transcript [2]: −2.00
Fold change, LOC389727 (NM_372092) transcript [2]: n.s.
Fold change, MAT2A (NM_005911) transcript [2]: n.s.
Fold change, MOL1 (NM_021960) transcript [2]: n.s.
Fold change, MPP6 (NM_016447) transcript [2]: n.s.
Fold change, OSTCL (NM_145303) transcript [2]: n.s.
Fold change, P5MC5 (NM_002805) transcript [2]: n.s.
Fold change, PLK1S1 (NM_018474) transcript [2]: n.s.
Fold change, PPM1J (NM_005167) transcript [2]: n.s.
Fold change, RNF26 (NM_032015) transcript [2]: n.s.
Fold change, RRAD (NM_004185) transcript [2]: 3.75
Fold change, SEMA3G (NM_000379) transcript [2]: n.s.
Fold change, SLC22A16AS (NM_007105) transcript [2]: −1.34
Fold change, SOCS6 (NM_004232) transcript [2]: n.s.
Fold change, TMED1 (NM_006858) transcript [2]: n.s.
Fold change, TRIP4 (NM_016213) transcript [2]: n.s.
Fold change, UBE2L3 (NM_003347) transcript [2]: n.s.
Fold change, UBE21 (NM_014176) transcript [2]: n.s.
Fold change, W282 (NM_018029) transcript [2]: 1.30
